Laboratory results published in US9580390B2, “Indazole compounds as kinase inhibitors and method of treating cancer with same” (University Health Network, priority 2011, dated 2017).
Where two headings read alike, the source gives them in different places.

Tests used:
human TTK = target: T1, human TTK (Homo sapiens, UniProt P33981); assay: TTK inhibition assay (indirect ELISA); assay type: biochemical; details: read-out: TTK IC50 Range
T1 construct: amino terminal GST fusion of full length human TTK; purchased Invitrogen
T1 sequence (P33981 1-857): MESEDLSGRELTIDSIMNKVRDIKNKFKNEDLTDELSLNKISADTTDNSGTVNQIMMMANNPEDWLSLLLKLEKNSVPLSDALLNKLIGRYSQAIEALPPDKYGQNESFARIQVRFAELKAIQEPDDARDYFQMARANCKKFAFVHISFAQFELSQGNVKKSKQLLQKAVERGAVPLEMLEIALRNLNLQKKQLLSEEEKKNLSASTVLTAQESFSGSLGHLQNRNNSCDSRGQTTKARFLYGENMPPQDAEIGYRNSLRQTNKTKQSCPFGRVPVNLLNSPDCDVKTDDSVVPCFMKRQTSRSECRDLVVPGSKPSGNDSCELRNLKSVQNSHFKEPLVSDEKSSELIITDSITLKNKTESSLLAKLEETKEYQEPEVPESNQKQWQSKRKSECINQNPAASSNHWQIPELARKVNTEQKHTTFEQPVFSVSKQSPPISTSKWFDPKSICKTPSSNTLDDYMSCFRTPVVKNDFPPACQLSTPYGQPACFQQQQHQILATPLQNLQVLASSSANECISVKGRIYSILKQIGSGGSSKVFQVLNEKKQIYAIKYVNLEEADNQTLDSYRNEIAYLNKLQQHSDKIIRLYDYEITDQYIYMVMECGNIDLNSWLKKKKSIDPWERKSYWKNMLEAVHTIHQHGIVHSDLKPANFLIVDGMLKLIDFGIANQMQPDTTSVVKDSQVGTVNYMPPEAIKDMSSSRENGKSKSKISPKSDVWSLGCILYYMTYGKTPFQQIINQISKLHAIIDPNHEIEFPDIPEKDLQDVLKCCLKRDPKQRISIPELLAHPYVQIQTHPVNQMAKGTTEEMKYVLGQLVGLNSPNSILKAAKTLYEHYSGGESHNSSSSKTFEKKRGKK

human PLK4 = target: T2, human PLK4 (Homo sapiens, UniProt O00444); assay: PLK4 inhibition assay (indirect ELISA); assay type: biochemical; details: 15 μM ATP
T2 construct: amino terminal GST fusion of residues 1-391 of human PLK4; made in house; host or cells: E. coli
T2 sequence (O00444 1-391): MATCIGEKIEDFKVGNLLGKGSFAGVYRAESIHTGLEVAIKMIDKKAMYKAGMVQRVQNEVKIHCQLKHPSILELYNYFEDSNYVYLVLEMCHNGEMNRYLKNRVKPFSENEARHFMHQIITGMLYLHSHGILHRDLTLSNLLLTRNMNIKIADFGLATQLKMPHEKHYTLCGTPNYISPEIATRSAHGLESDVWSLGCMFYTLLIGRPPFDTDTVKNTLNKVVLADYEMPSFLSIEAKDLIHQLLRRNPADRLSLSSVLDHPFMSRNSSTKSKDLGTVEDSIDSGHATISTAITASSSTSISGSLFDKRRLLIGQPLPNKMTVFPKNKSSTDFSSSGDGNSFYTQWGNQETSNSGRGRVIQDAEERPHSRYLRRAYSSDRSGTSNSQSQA
Method: Active PLK4 was purified from an E. coli expression system as an amino terminal GST fusion of residues 1-391 of human PLK4. The protein was purified from clarified cell extracts after induction at 15° C. overnight using glutathione sepharose, gel permeation chromatography, and ion exchange (Resource Q). The resulting protein was dephosphorylated with lambda phosphatase (NEB cat# P0753), and resolved from the phosphatase using gluthione sepharose. The dephosphorylated GST-PLK4 was stored in aliquots at −80° C. until use.
PLK4 activity was measured using an indirect ELISA detection system. Dephosphorylated GST-PLK4 (4 nM) was incubated in the presence of 15 μM ATP (Sigma cat# A7699), 50 mM HEPES-[…] pH 7.4, 10 mM MgCl2, 0.01% Brij 35 (Sigma cat# 03-3170), in a 96 well microtitre plate pre-coated with MBP (Millipore cat#30-011). The reaction was allowed to proceed for 30 minutes, followed by 5 washes of the plate with Wash Buffer (50 mM TRIS-Cl pH 7.4 and 0.2% Tween 20), and incubation for 30 minutes with a 1:3000 dilution of primary antibody (Cell Signaling cat# 9381). The plate was washed 5 times with Wash Buffer, incubated for 30 minutes in the presence of secondary antibody coupled to horse radish peroxidase (BioRad cat# 1721019, 1:3000 concentration), washed an additional 5 times with Wash Buffer, and incubated in the presence of TMB substrate (Sigma cat# T0440). The colourimetric reaction was allowed to continue for 5 minutes, followed by addition of stop solution (0.5 N sulphuric acid), and quantified by detection at 450 nm with either a monochromatic or filter based plate reader (Molecular Devices M5 or Beckman DTX880, respectively).
Compound inhibition was determined at either a fixed concentration (10 μM) or at a variable inhibitor concentration (typically 50 μM to 0.1 μM in a 10 point dose response titration). Compounds were pre-incubated in the presence of enzyme for 15 minutes prior to addition of ATP and the activity remaining quantified using the above described activity assay. The % Inhibition of a compound was determined using the following formula: % Inhibition=100×(1−(experimental value−background value)/(high activity control−background value)). The IC50 value was determined using a non-linear 4 point logistic curve fit (XLfit4, IDBS) with the formula: (A+(B/(1+((x/C)^D)))), where A=background value, B=range, C=inflection point, D=curve fit parameter.

Breast cancer cells = assay: Cancer cell line growth inhibition (SRB assay); assay type: cell-based; details: Homo sapiens; MDA-MB-468; read-out: Cancer Cell Line GI50 Range MDA-MB-468
[1] = tested on: colon cancer cells (HCT116); assay: Cancer cell line growth inhibition (SRB assay); assay type: cell-based; details: Homo sapiens, HCT-116, read-out: Cancer Cell Line GI50 Range HCT116
[2] = tested on: ovarian cancer cells (PA-1); assay: Cancer cell line growth inhibition (SRB assay); assay type: cell-based; details: read-out: Cancer Cell Line GI50 Range PA-1
[3] = HCT116 colon cancer cells, SRB assay
[4] = PA-1 ovarian cancer cells, SRB assay

Row | SMILES | IC50 (human TTK) [nM] | IC50 (human PLK4) [nM] | GI50 [1] [nM] | GI50 ([2]; Homo sapiens, PA-1) [nM] | GI50 [1, 3] [nM] | GI50 [2, 4] [nM] | GI50 (Breast cancer cells) [nM]
1 | CC(C)(C)CC(NC(=O)c1ccc2[nH]nc(-c3ccc(N4CCN(C5COC5)CC4)cc3)c2c1)c1ccccc1F (stereo not drawn) [Example A308, N-(1-(2-fluorophenyl)-3,3-dimethylbutyl)-3-(4-(4-(oxetan-3-yl)piperazin-1-yl)phenyl)-1H-indazole-5-carboxamide] | < 100 | < 50 | – | – | – | – | –
2 | CN1[C@@H]2CC[C@H]1C[C@@H](Oc1ccc(-c3n[nH]c4ccc(C(=O)NC(c5ccccc5Cl)C5CC5)cc34)cc1)C2 (stereo partly drawn) [Example A280, N-((2-chlorophenyl)(cyclopropyl)methyl)-3-(4-(((1R,3R,5S)-8-methyl-8-azabicyclo[3.2.1]octan-3-yl)oxy)phenyl)-H-indazole-5-carboxamide] | < 100 | < 50 | < 100 | < 100 | – | – | 100 to 500
3 | C=CCCC(NC(=O)c1ccc2[nH]nc(-c3ccc(N4CCN(C5COC5)CC4)cc3)c2c1)c1ccccc1Cl (stereo not drawn) [Example A302, N-(1-(2-chlorophenyl)pent-4-en-1-yl)-3-(4-(4-(oxetan-3-yl)piperazin-1-yl)phenyl)-1H-indazole-5-carboxamide] | < 100 | < 50 | < 100 | < 100 | – | – | 100 to 500
4 | CN1[C@@H]2CC[C@H]1C[C@@H](Oc1ccc(-c3n[nH]c4ccc(C(=O)NC(c5ccccc5F)C5CC5)cc34)cc1)C2 (stereo partly drawn) [Example A282, N-(cyclopropyl(2-fluorophenyl)methyl)-3-(4-(((1R,3R,5S)-8-methyl-8-azabicyclo[3.2.1]octan-3-yl)oxy)phenyl)-1H-indazole-5-carboxamide] | < 100 | < 50 | < 100 | < 100 | – | – | 100 to 500
5 | O=C(N[C@H](c1ccccc1)C1CC1)c1ccc2[nH]nc(-c3ccc(OC4CC5CCC(C4)N5C4COC4)cc3)c2c1 (stereo partly drawn) [Example A336, N-((S)-cyclopropyl(phenyl)methyl)-3-(4-(((1R,3R,5S)-8-(oxetan-3-yl)-8-azabicyclo[3.2.1]octan-3-yl)oxy)phenyl)-1H-indazole-5-carboxamide] | < 100 | < 50 | 100 to 500 | 100 to 500 | – | – | –
6 | CN1[C@@H]2CCC[C@H]1C[C@@H](Oc1ccc(-c3n[nH]c4ccc(C(=O)NC(c5ccccc5)C5CC5)cc34)cc1)C2 (stereo partly drawn) [Example A390, N-(cyclopropyl (phenyl)methyl)-3-(4-(((1R,3R,5S)-9-methyl-9-azabicyclo[3.3.1]nonan-3-yl)oxy)phenyl)-1 H-indazole-5-carboxamide] | < 100 | < 50 | < 100 | < 100 | – | – | 100 to 500
7 | CC(C)(C)C[C@H](NC(=O)c1ccc2[nH]nc(-c3ccc(N4C5COCC4CC(O)C5)cc3)c2c1)c1ccccc1 (stereo partly drawn) [Example A426, N-((S)-3,3-dimethyl-1-phenylbutyl)-3-(4-((1R,5S,7R)-7-hydroxy-3-oxa-9-azabicyclo[3.3.1]nonan-9-yl)phenyl)-1H-indazole-5-carboxamide] | < 100 | < 50 | – | – | – | – | –
8 | O=C(NC(c1ccsc1)C1CC1)c1ccc2[nH]nc(-c3ccc(OC4CCN(CCO)CC4)cc3)c2c1 (stereo not drawn) [Example A117, N-(cyclopropyl(thiophen-3-yl)methyl)-3-(4-((1-(2-hydroxyethyl)piperidin-4-yl)oxy)phenyl)-1H-indazole-5-carboxamide] | – | < 50 | – | – | < 100 | < 100 | –

More lines, main results first:

Row | IC50 (human TTK) [nM] | IC50 (human PLK4) [nM] | GI50 [1] [nM] | GI50 ([2]; Homo sapiens, PA-1) [nM] | GI50 [1, 3] [nM] | GI50 [2, 4] [nM] | SMILES | GI50 (Breast cancer cells) [nM]
9 | < 100 | < 50 | < 100 | < 100 | – | – | O=C(NC(c1ccccc1Cl)C1CCC1)c1ccc2[nH]nc(-c3ccc(N4CCN(C5COC5)CC4)cc3)c2c1 (stereo not drawn) [Example A297, N-((2-chlorophenyl)(cyclobutyl)methyl)-3-(4-(4-(oxetan-3-yl)piperazin-1-yl)phenyl)-1H-indazole-5-carboxamide] | < 100
10 | < 100 | < 50 | < 100 | < 100 | – | – | CC(C)[C@H](NC(=O)c1ccc2[nH]nc(-c3ccc(OC4CN(C5COC5)C4)cc3)c2c1)c1ccccc1Cl [Example A296, (S)-N-(1-(2-chlorophenyl)-2-methylpropyl)-3-(4-((1-(oxetan-3-yl)azetidin-3-yl)oxy)phenyl)-1H-indazole-5-carboxamide] | –
11 | < 100 | < 50 | > 500 | > 500 | – | – | O=C(NCC1(c2ccccc2)COC1)c1ccc2[nH]nc(-c3ccc(OC4CCN(C5COC5)CC4)cc3)c2c1 [Example A487, 3-(4-((1-(oxetan-3-yl)piperidin-4-yl)oxy)phenyl)-N-((3-phenyloxetan-3-yl)methyl)-1H-indazole-5-carboxamide] | > 500
12 | < 100 | < 50 | – | – | – | – | CCC(CNC(=O)c1ccc2[nH]nc(-c3ccc(OC4CCN(C)CC4)cc3)c2c1)c1ccccc1 (stereo not drawn) [Example A408, 3-(4-((1-methylpiperidin-4-yl)oxy)phenyl)-N-(2-phenylbutyl)-1H-indazole-5-carboxamide] | –
13 | – | < 50 | – | – | 100 to 500 | 100 to 500 | COCCN1CCC(Oc2ccc(-c3n[nH]c4ccc(C(=O)N[C@H](C)c5ccccc5F)cc34)cc2)CC1 [Example A129, (R)-N-(1-(2-fluorophenyl)ethyl)-3-(4-((1-(2-methoxyethyl)piperidin-4-yl)oxy)phenyl)-1H-indazole-5-carboxamide] | –
14 | < 100 | < 50 | < 100 | < 100 | – | – | O=C(NC(c1ccsc1)C1CCC1)c1ccc2[nH]nc(-c3ccc(OC4CCN(C5COC5)CC4)cc3)c2c1 (stereo not drawn) [Example A331, N-(cyclobutyl(thiophen-3-yl)methyl)-3-(4-((1-(oxetan-3-yl)piperidin-4-yl)oxy)phenyl)-1H-indazole-5-carboxamide] | –
